“Also recorded” adds a separate entry of the source.
Experiments:
[1] = tested on: relapsed/refractory CLL, Hodgkin lymphoma and B-cell NHL including DLBCL; assay: U.S. Phase Ia trial of Compound A monotherapy: efficacy; format: in vivo, human; set-up: key to response: PD: disease progression; conditions: for time on continued monotherapy treatment: treatment continuing
Protocol: Eligibility criteria for the U.S. study were similar to the China study, but histological subtypes included patients with relapsed/refractory CLL, Hodgkin lymphoma and B-cell NHL including DLBCL. Patients who had prior exposure to BTK inhibiting agents were permitted in the trial.
(§1) Studies on the 200 mg and 300 mg cohorts were conducted in a standard 3+3 design.
(§2) The response rate, including the partial response and complete response rate, was defined according to the Revised International Working Group Criteria for non-Hodgkin's lymphoma (Cheson et al., J Clin Oncol 25:579-86 (2007)). Drug-related adverse events (AEs), including DLT, non-hematologic AEs and hematologic AEs were recorded. […] The PK indexes of single dose administration included AUClast, AUCO-∞, Cmax, tmax, t1/2, CL/F and Vd/F. The PK indexes of steady state under continuous administration included AUCss, Cmax,ss and tmax,ss.

[2] = tested on: relapsed/refractory CLL and B-cell lymphomas; assay: China and U.S. first-in-human monotherapy trials, overall conclusions
Excerpt: The primary endpoint of the trials was safety, while the secondary endpoints of the trials were anti-tumor activity and pharmacokinetic parameters. Patients enrolled in the trials met the following criteria: relapsed/refractory CLL and B-cell lymphoma with no available effective therapies, ≥18 years of age, and an Eastern Cooperative Oncology Group (ECOG) score≤1. […] The 3+3 dose-escalation method was used.
Relapsed/refractory B-cell lymphoma patients who met the aforementioned enrollment criteria were enrolled without randomization. […] The patients were required to stay in the hospital for 24 hours after the first dosing. […] The first 28 days of treatment was considered DLT period.
as §1, §2

[3] = China Phase I trial of Compound A monotherapy: safety; format: in vivo, human
Protocol: The pharmacokinetics of Compound A was also evaluated.
Patients who met the following inclusion criteria were enrolled in the trials in China: i) age≥18 years, no gender limits, and provide the informed consent form; ii) B-cell lymphoma classification is based on WHO classified definition, including CLL, small lymphocytic lymphoma (SLL); CLL with 17p-; MCL; WM; DLBCL, etc.; iii) measurable lesion: NHL requires at least one≥2 cm two-dimensional lesion diameter, CLL≥5000 leukemia cells/mm^3, WM IgM≥1000 mg/dL, bone marrow lymph plasma-like cells infiltration, histopathologically diagnosed as DLBCL; iv) patients failed in lymphoma treatment at least once and have no standard therapeutic options; DLBCL patients who are not suitable for or reject autologous stem cell transplantation; and v) ECOG (Eastern Cooperative Oncology Group) performance status 0˜1. Meanwhile, patients who met any one of the following criteria were excluded: i) disease with changes of pathological tissue types (including large cell transformation); ii) patients received other BTK inhibitor therapy (China only); and iii) patients with HIV infection, or HBs-Ag or HBc-Ab positive.
No intrapatient dose escalation of Compound A was permitted.

[4] = toxicokinetics in beagle dogs; format: in vivo
Excerpt: Both patents are incorporated by reference herein in their entirety.

[5] = 13 patients, 50-400 mg daily, 28 day dosing schedule

Question: With `C=CC(=O)N1CC[C@@H](n2nc(-c3ccc(Oc4c(F)c(F)cc(F)c4F)cc3F)c3c(N)ncnc32)C1` [Compound A, 1-((R)-3-(4-amino-3-(2-fluoro-4-(2,3,5,6-tetrafluorophenoxy)phenyl)-1H-pyrazolo[3,4-d]pyrimidin-1-yl)pyrrolidin-1-yl)prop-2-en-1-one] as the compound, how does the response ([1]; B-cell lymphoma patient) read?
Answer: Its response is 1SD.

Question: And the “time on monotherapy until off study for disease progression” value (“time on monotherapy until off study” for short) ([1]; B-cell lymphoma, 50 mg)?
Answer: Its value is “five months”.

Question: What about the response ([1]; CLL patients (N=2)) of the same compound?
Answer: The response was 1PR, 1SD.

Question: And the “time on continued monotherapy treatment” value ([1]; CLL, 100 mg)?
Answer: The value was 13 months.

Question: What about the “time on monotherapy until off study” value ([1]; CLL, 200 mg) of the same compound?
Answer: Its value is 8 months.

Question: And the response ([1]; DLBCL patient)?
Answer: The response was “PD”.

Question: And the “time on monotherapy until off study” value ([1]; DLBCL, 200 mg)?
Answer: Its value is 2 months.

Question: And the response ([1]; MZL patient)?
Answer: The response was 1PR.

Question: What about the “time on continued monotherapy treatment” value ([1]; MZL) of the same compound?
Answer: The value was 11 months.

Question: What about the “cycles of monotherapy tolerated” value ([2]; China and U.S. trials) of the same compound?
Answer: Its value is “up to 23 cycles”.

Question: What about the maximum tolerated dose ([2]; Compound A monotherapy, China and U.S. trials) of the same compound?
Answer: Its maximum tolerated dose is “had not been reached”.

Question: And the “exposures to Compound A” value ([2]; all patients at all of the dose levels)?
Answer: The value was “adequate exposures”.

Question: And the “efficacy in WM, MZL, and SLL/CLL patients” value ([2]; orally 50-400 mg once daily)?
Answer: The value was “preliminary efficacy was observed; also recorded: Efficacy of the Compound has also been observed”.

Question: What about the safety and tolerability ([2]; patients with relapsed/refractory CLL and B-cell lymphomas, China and U.S. trials) of the same compound?
Answer: Its safety and tolerability is “safe and well tolerated”.

Question: What about the “Grade 2, 4 or 5 hematologic events” value [3] of the same compound?
Answer: Its value is “No Grade 2, 4 or 5 hematologic events occurred”.

Question: What about the “Grade 2, 4 or 5 non-hematologic events” value [3] of the same compound?
Answer: Its value is “No Grade 2, 4 or 5 non-hematologic events occurred”.

Question: What about the “anemia, patients” value [3, 5] of the same compound?
Answer: The value was 23.1%.

Question: And the “leucopenia, patients” value [3, 5]?
Answer: The value was 23.1%.

Question: And the “neutropenia, patients” value [3, 5]?
Answer: Its value is 23.1%.

Question: And the dose-limiting toxicity ([3]; 50-400 mg daily)?
Answer: The dose-limiting toxicity was “No dose-limiting toxicity occurred”.

Question: What about the “grade of the majority of drug-related AEs” value ([3]; 28 day dosing schedule) of the same compound?
Answer: Its value is “grade 1”.

Question: What about the “Grade 1 alanine aminotransferase (ALT) elevation, patients” value ([3]; one patient) of the same compound?
Answer: Its value is 7.7%.

Question: What about the “Grade 1 neutropenia, patients” value ([3]; one patient) of the same compound?
Answer: Its value is 7.7%.

Question: What about the “Grade 3 pneumonia, patients” value ([3]; one patient) of the same compound?
Answer: The value was 7.7%.

Question: What about the “Grade 3 neutropenia, patients” value ([3]; two patients) of the same compound?
Answer: Its value is 15.4%.

Question: And the toxicokinetics properties [4]?
Answer: Its toxicokinetics properties is “Improved toxicokinetics properties”.

— patent US11622965B2, “Methods for treating lymphoid malignancies” (ZHEJIANG DTRM BIOPHARMA CO. LTD., priority 2017, dated 2023)
